Among the test systems are Aerococcus viridans; Bacillus megaterium; Enterococcus faecalis; Escherichia coli 1106; Escherichia coli D22; Escherichia coli D31; Micrococcus luteus; Pseudomonas alginovora; Salmonella typhimurium; Staphylococcus aureus.
What all share (test): ≥ marks a high value that may be exact or a test limit, other limits are often not marked, values filed in µg/mL are converted to µM
Experiment [1] concerns Aspergillus fumigatus KCTC 4165.
Experiment [2] deals with Bacillus subtilis KCTC 1918.
The subject of experiment [3] is Candida albicans TIMM 1768.
In experiment [4] the test system is Escherichia coli KCTC 1682.
Experiment [5] has as its system Pseudomonas aeruginosa KCTC 1637.
Experiment [6] deals with Salmonella typhimurium KCTC 1926.
Experiment [7] relates to Staphylococcus aureus KCTC 1621.
Experiment [8] relates to Streptococcus pyogenes KCTC 3096.
For experiment [9], the system named is Pseudoalteromonas carrageenovora ATCC 43555.

Our source for the MIC values is DBAASP.

Converted amounts (≈) assume the structure as drawn.

Turning to `CCC(C)C(NC(=O)C(CCCCN)NC(=O)C(CCCCN)NC(=O)C(CC(C)C)NC(=O)C(CCCCN)NC(=O)C(CCC(=O)O)NC(=O)CN)C(=O)NCC(=O)NC(CCC(N)=O)C(=O)NC(CCCCN)C(=O)NC(C(=O)NC(CCCCN)C(=O)NC(CC(N)=O)C(=O)NC(Cc1ccccc1)C(=O)NC(Cc1ccccc1)C(=O)NC(CCC(N)=O)C(=O)NC(CCCCN)C(=O)NC(CC(C)C)C(=O)O)C(C)CC` (centres undefined) [GEKLKKIGQKIKNFFQKL], the MIC is at least 100 µM in experiment [1]; at least 50 µM in experiment [2]; at least 50 µM in experiment [3]; at least 50 µM in experiment [4]; 12.5 µM (≈ 26.8 µg/mL) in experiment [5]; 12.5 µM (≈ 26.8 µg/mL) in experiment [6]. Further, the MIC in experiment [7] and in experiment [8] was at least 50 µM each time.

Consider `CC[C@H](C)[C@H](NC(=O)CN)C(=O)NCC(=O)N[C@@H](CCCCN)C(=O)N[C@@H](Cc1ccccc1)C(=O)N[C@@H](CC(C)C)C(=O)N[C@@H](CCCCN)C(=O)N[C@@H](CCCCN)C(=O)N[C@@H](C)C(=O)N[C@@H](CCCCN)C(=O)N[C@@H](CCCCN)C(=O)N[C@@H](Cc1ccccc1)C(=O)NCC(=O)N[C@@H](CCCCN)C(=O)N[C@@H](C)C(=O)N[C@@H](Cc1ccccc1)C(=O)N[C@H](C(=O)N[C@@H](CCCCN)C(=O)N[C@@H](CCSC)C(=O)N[C@@H](CCCCN)C(=O)N[C@@H](CCCCN)C(N)=O)C(C)C` [GIGKFLKKAKKFGKAFVKMKK], for which the MIC was 0.707 µM (≈ 1.68 µg/mL) against Aerococcus viridans; 0.707 µM (≈ 1.68 µg/mL) with Bacillus megaterium; 12.6 µM (≈ 30.1 µg/mL) against Enterococcus faecalis; 1.41 µM (≈ 3.37 µg/mL) against Escherichia coli 1106; 1.41 µM (≈ 3.37 µg/mL) in the experiment on Escherichia coli D22; 1.41 µM (≈ 3.37 µg/mL) against Escherichia coli D31. The MIC is 0.707 µM (≈ 1.68 µg/mL) in the experiment on Micrococcus luteus; 7.07 µM (≈ 16.8 µg/mL) in experiment [9]; 14.1 µM (≈ 33.7 µg/mL) with Pseudomonas alginovora; 2.83 µM (≈ 6.74 µg/mL) against Salmonella typhimurium; 1.41 µM (≈ 3.37 µg/mL) in the experiment on Staphylococcus aureus.
